Assay results reported in ChEMBL document CHEMBL3507680, “University of Dundee, Gates Library screen for HepG2 cell viability”.

assay: Human HepG2 cell viability assay in 384 well format; assay type: toxicity, cell-based; design: dose 125 nL, time 70.5 hour; concentration not given beside the values; conditions: HepG2 cells, read-out: Inhibition

In order of rising cytotoxicity at 70.5 h:
1. O=C(c1cccs1)N1CC[C@@H](N2CCOCC2)[C@@H]1Cc1ccccc1  -15.7%
2. CCOCCCNC(=O)c1ccccc1S(C)(=O)=O  -15.5%
3. COC(=O)CC1CCN(C(=O)c2ccc(-n3nnnc3C)cc2)CC1  -11.6%
4. COCCN1C[C@H]2[C@@H](C1)N(C(=O)COc1ccccc1)CC[C@H]2OC  -11.3%
5. COc1cc2c(cc1CNC(=O)Cc1cc(C)on1)OC(C)C2 (centres undefined)  -8.66%
6. COc1nc(N2CCC(CC(N)=O)CC2)ncc1Br  -8.58%
7. CN(C1CCN(c2ccccn2)CC1)S(=O)(=O)N1CCOCC1  -7.57%
8. CC(C)N1CCC2(CC1)C(=O)N(CCN(C)C)c1ccccc12  -6.47%
9. COc1nc2c(cc1C(=O)N1CCCCC1c1ccccn1)CCC2 (centres undefined)  -6.36%
10. CCN1CCC(CNC(=O)Nc2cccnc2OC)CC1  -6.19%
11. O=S(=O)(C1CC1)N1CCC2(COCc3cnc(NCC4CC4)nc32)C1 (centres undefined)  -6.1%
12. Cn1ccc(C(=O)NC2CCC23CCN(C(=O)c2ccncc2)CC3)c1 (centres undefined)  -6.03%
13. CCN(CC)Cc1ccc(C(=O)N2CCN(CC(C)O)CC2)o1 (centres undefined)  -5.77%
14. CC(C)CCN1C2(CCN(C(=O)CN(C)C)C2)c2ccccc2S1(=O)=O (centres undefined)  -5.18%
15. Cc1nn(CCC#N)c(C)c1CCC(=O)N(C)Cc1ccc(F)cc1F  -4.98%
16. CC(C)N1CC(C(=O)NC(C)(C)CNC(=O)OC(C)(C)C)CC1=O (centres undefined)  -3.84%
17. O=C(CN1CCCC1Cn1cncn1)Nc1ccc(Cl)cn1 (centres undefined)  -3.38%
18. CCn1cc(S(=O)(=O)Nc2cccnc2-n2cccn2)nc1C  -2.93%
19. O=C1COC2(CCN(Cc3ccoc3)CC2)CN1CCn1cccn1  -2.81%
20. CCCC(=O)N1CCCCC1c1nc(N(C)C)ncc1-c1cc(C)no1 (centres undefined)  -2.48%
21. CCc1nc(C2CCCN2Cc2ccn(C)c(=O)c2)no1 (centres undefined)  -2.34%
22. O=C1CCc2cc(NC(=O)C3CCCN3c3nccs3)ccc2N1 (centres undefined)  -1.9%
23. O=C(C1CC1)N1CCc2ccccc2C12CCNCC2  -1.81%
24. Cc1cc2ccncc2n1CC1(O)CCN(C(=O)c2ccncc2)CC1  -1.76%
25. CC1(C)CNC(=O)c2nc(CCN3CCC(O)CC3)[nH]c2C1  -1.47%
26. CCS(=O)(=O)N1CCC(c2nnc(Cn3cccn3)n2C2CC2)CC1  -0.619%
27. CC(C)c1noc([C@@H]2C[C@H](NS(=O)(=O)Cc3ccccc3)CN2C)n1  -0.576%
28. Cc1ccc(N2C[C@H]3CCC[C@@H](CN(C)C)[C@H]3C2)nn1  -0.102%
29. Cc1ccoc1C(=O)NC1CCN(Cc2cccc3ccccc23)CC1  1.33%
30. CC(C)n1cc(CN2CCCN(C(=O)COC3CCCC3)CC2)cn1  1.39%
31. Cc1cccc(C(=O)NCc2cccnc2N(C)C)n1  1.42%
32. Cc1cc(C)nc(Nc2nccnc2C2CCCN(C(C)C)C2)n1 (centres undefined)  1.6%
33. COc1ccc(NC(=O)N2CCN(CCSc3ccccc3)CC2)cc1  3.81%
34. COc1ccc(C(=O)Nc2ccccc2C(C)C)c(OC)n1  5.28%
35. CCOc1cc2c(cc1CCC(=O)O)CCC2  7.85%
36. Cc1ncc(C(=O)N2CCC(N3C[C@@H](C)O[C@@H](C)C3)CC2)c(=O)[nH]1  8.83%
37. CCc1c(C)nc(C)nc1N1C[C@@H](CN(CC)CCO)[C@@H](CO)C1  10.3%
38. CC(CC(=O)N1CCC(c2nnc3n2CCC3)CC1)n1cccc1 (centres undefined)  10.7%
39. Cc1ccc(N2CCC3(CCN(C(=O)N(C)C)CC3)CC2)nn1  11.4%
40. CC(C)n1c2ccccc2c2c1cc(C(=O)N(C)C)n2C  16.4%
41. COc1ccccc1-c1cc(C(F)(F)F)c2c(C)nn(CC(=O)O)c2n1  18.1%
42. CCc1nc(CN(C)C2CCN(CCn3cc(C#N)cn3)C2)no1 (centres undefined)  37.1%
43. N#CCCCOc1cccnc1NC(=O)CC1CCCCC1  39.8%
44. O=C1CC[C@H]2[C@H](CCN2C(=O)N2CCCC2)N1Cc1ccncc1  50.7%
